Laboratory results taken from the CheMixHub viscosity set.

Assay: xn = mol fraction of the nth substance listed

CNC(C)=O + CCCCO
303.15 K, 101 kPa
Conditions	viscosity [mPa·s]
x1 = 0.0988	2.32
x1 = 0.2013	2.369
x1 = 0.2993	2.428
x1 = 0.3951	2.525
x1 = 0.4945	2.651
x1 = 0.5957	2.82
x1 = 0.6947	3.015
x1 = 0.8011	3.259
x1 = 0.8918	3.503

CNC(C)=O + CCCO
303.15 K, 101 kPa
Conditions	viscosity [mPa·s]
x1 = 0.1069	1.816
x1 = 0.1939	1.891
x1 = 0.3142	2.033
x1 = 0.3918	2.142
x1 = 0.4791	2.289
x1 = 0.5976	2.537
x1 = 0.6966	2.785
x1 = 0.7922	3.066
x1 = 0.9015	3.443

CNC(C)=O + Cc1cc(C)cc(C)c1
308.15 K, 101.33 kPa
Conditions	viscosity [mPa·s]
x1 = 0.0458	0.6101
x1 = 0.3137	1.08
x1 = 0.4362	1.342
x1 = 0.5467	1.621
x1 = 0.646	1.898
x1 = 0.7315	2.174
x1 = 0.8095	2.455
x1 = 0.8779	2.719
x2 = 0.0126	3.191

O=S(=O)([O-])c1ccc(Cl)cc1.[Na+] + O
viscosity [mPa·s], 101 kPa
Conditions	x1 = 9e-05	x1 = 0.00018	x1 = 0.0009	x1 = 0.0018	x1 = 0.00448	x1 = 0.00893	x1 = 0.0133	x1 = 0.0177
298.15 K	0.899	0.9	0.916	0.939	1	1.103	1.219	–
318.15 K	0.598	0.599	0.608	0.623	0.659	0.723	0.793	0.869

CCOCCO + c1ccccc1
viscosity [mPa·s], 101 kPa
Conditions	298.15 K	308.15 K
x1 = 0.0585	0.632	0.548
x1 = 0.1533	0.686	0.587
x1 = 0.2518	0.752	0.635
x1 = 0.3637	0.841	0.7
x1 = 0.4521	0.923	0.76
x1 = 0.5048	0.979	0.8
x1 = 0.5525	1.034	0.839
x1 = 0.6521	1.164	0.931
x1 = 0.7508	1.317	1.039
x1 = 0.8521	1.505	1.17
x1 = 0.9547	1.734	1.328

CCOCCO + C1COCO1
298.15 K, 101 kPa
Conditions	viscosity [mPa·s]
x2 = 0.1191	1.605
x2 = 0.2332	1.379
x2 = 0.3427	1.187
x2 = 0.4478	1.03
x2 = 0.5488	0.9124
x2 = 0.646	0.8144
x2 = 0.7395	0.7365
x2 = 0.8295	0.6706
x2 = 0.9163	0.6129

CC(C)CCO + CC(C)O
298.15 K, 101 kPa
Conditions	viscosity [mPa·s]
x1 = 0.0665	2.158
x1 = 0.095	2.195
x1 = 0.1475	2.277
x1 = 0.1504	2.279
x1 = 0.2352	2.411
x1 = 0.2364	2.41
x1 = 0.3228	2.562
x1 = 0.3304	2.572
x1 = 0.4092	2.707
x1 = 0.4193	2.736
x1 = 0.5069	2.896
x1 = 0.5352	2.948
x1 = 0.6126	3.093
x1 = 0.6388	3.125
x1 = 0.7326	3.271
x1 = 0.7853	3.365
x1 = 0.8525	3.477
x1 = 0.9466	3.651

CC(C)CCO + OCCCO
viscosity [mPa·s], 100 kPa
Conditions	x1 = 0.0679	x1 = 0.1388	x1 = 0.218	x1 = 0.3009	x1 = 0.4084	x1 = 0.4979	x1 = 0.6034	x1 = 0.7212	x1 = 0.8537
298.15 K	37.92	35.56	32.86	29.98	26.12	22.84	18.89	14.42	9.305
303.15 K	30.13	28.24	26.14	23.83	20.79	18.2	15.09	11.57	7.532
308.15 K	25.86	24.27	22.55	20.66	18.08	15.91	13.3	10.25	6.745
